Experimental data from patent US12577245B2, “Sulfonyl benzamide derivatives as Bcl-2 inhibitors” (ASCENTAGE PHARMA (SUZHOU) CO., LTD., priority 2021, dated 2026).

Target: Bcl-2 G101V (Homo sapiens, UniProt P10415, G101V)
Assay: Bcl-2 G101V inhibition, fluorescence polarization (Flu-BIM tracer) binding assay
Settings: FP; 20 nM Bcl2, 5 nM Flu-BIM, 1 h incubation; read-out: Bcl-2 G101V (FP)

CC1(C)CCC(CN2CCN(c3ccc(C(=O)NS(=O)(=O)c4ccc(NC[C@H]5CC[C@](C)(O)CC5)c([N+](=O)[O-])c4)c(Oc4cnc5[nH]ccc5c4)c3)CC2)=C(c2cc(-c3ccc(F)c(F)c3F)cs2)C1 [Example 46, 2-((1H-pyrrolo[2,3-b]pyridin-5-yl)oxy)-4-(4-((4,4-dimethyl-2-(4-(2,3,4-trifluorophenyl)thiophen-2-yl)cyclohex-1-en-1-yl)methyl)piperazin-1-yl)-N-((4-((((1r,4r)-4-hydroxy-4-methylcyclohexyl)methyl)amino)-3-nitrophenyl)sulfonyl)benzamide] gave an IC50 of 0.0435 µM.
CC1(C)CCC(CN2CCN(c3ccc(C(=O)NS(=O)(=O)c4ccc(NC[C@H]5COCCO5)c([N+](=O)[O-])c4)c(Oc4cnc5[nH]ccc5c4)c3)CC2)=C(c2cc(-c3ccc(C(F)F)cc3)cs2)C1 [Example 48, (S)—N-((4-(((1,4-dioxan-2-yl)methyl)amino)-3-nitrophenyl)sulfonyl)-2-((1H-pyrrolo[2,3-b]pyridin-5-yl)oxy)-4-(4-((2-(4-(4-(difluoromethyl)phenyl)thiophen-2-yl)-4,4-dimethylcyclohex-1-en-1-yl)methyl)piperazin-1-yl)benzamide] was tested, and the IC50 was 0.0367 µM.
CC1(C)CCC(CN2CCN(c3ccc(C(=O)NS(=O)(=O)c4ccc(NC[C@H]5CC[C@](C)(O)CC5)c([N+](=O)[O-])c4)c(Oc4cnc5[nH]ccc5c4)c3)CC2)=C(c2cc(-c3ccc(C(F)F)cc3)cs2)C1 [Example 49, 2-((1H-pyrrolo[2,3-b]pyridin-5-yl)oxy)-4-(4-((2-(4-(4-(difluoromethyl)phenyl)thiophen-2-yl)-4,4-dimethylcyclohex-1-en-1-yl)methyl)piperazin-1-yl)-N-((4-((((1r,4r)-4-hydroxy-4-methylcyclohexyl)methyl)amino)-3-nitrophenyl)sulfonyl)benzamide] gave an IC50 of 0.0436 µM.
CC1(C)CCC(CN2CCN(c3ccc(C(=O)NS(=O)(=O)c4ccc(NC[C@H]5COCCO5)c([N+](=O)[O-])c4)c(Oc4cnc5[nH]ccc5c4)c3)CC2)=C(c2cc(-c3ccc(F)c(F)c3)cs2)C1 [Example 50, (S)—N-((4-(((1,4-dioxan-2-yl)methyl)amino)-3-nitrophenyl)sulfonyl)-2-((1H-pyrrolo[2,3-b]pyridin-5-yl)oxy)-4-(4-((2-(4-(3,4-difluorophenyl)thiophen-2-yl)-4,4-dimethylcyclohex-1-en-1-yl)methyl)piperazin-1-yl)benzamide] was tested, and the IC50 was 0.0427 µM.
Molecule CC1(C)CCC(CN2CCN(c3ccc(C(=O)NS(=O)(=O)c4ccc(NC[C@H]5CC[C@](C)(O)CC5)c([N+](=O)[O-])c4)c(Oc4cnc5[nH]ccc5c4)c3)CC2)=C(c2cc(-c3ccc(F)c(F)c3)cs2)C1 [Example 51, 2-((1H-pyrrolo[2,3-b]pyridin-5-yl)oxy)-4-(4-((2-(4-(3,4-difluorophenyl)thiophen-2-yl)-4,4-dimethylcyclohex-1-en-1-yl)methyl)piperazin-1-yl)-N-((4-((((1r,4r)-4-hydroxy-4-methylcyclohexyl)methyl)amino)-3-nitrophenyl)sulfonyl)benzamide] has an IC50 of 0.0455 µM.
Work on CC1(C)CCC(CN2CCN(c3ccc(C(=O)NS(=O)(=O)c4ccc(NC[C@H]5CC[C@](C)(O)CC5)c([N+](=O)[O-])c4)c(Oc4cnc5[nH]ccc5c4)c3)CC2)=C(c2cc(-c3cc(F)c(F)cc3F)cs2)C1 [Example 53, 2-((1H-pyrrolo[2,3-b]pyridin-5-yl)oxy)-4-(4-((4,4-dimethyl-2-(4-(2,4,5-trifluorophenyl)thiophen-2-yl)cyclohex-1-en-1-yl)methyl)piperazin-1-yl)-N-((4-((((1r,4r)-4-hydroxy-4-methylcyclohexyl)methyl)amino)-3-nitrophenyl)sulfonyl)benzamide] yielded an IC50 of 0.0366 µM.
For CC1(C)CCC(CN2CCN(c3ccc(C(=O)NS(=O)(=O)c4ccc(NC[C@H]5CC[C@](C)(O)CC5)c([N+](=O)[O-])c4)c(Oc4cnc5[nH]ccc5c4)c3)CC2)=C(c2cc(-c3c(F)ccc(F)c3F)cs2)C1 [Example 54, 2-((1H-pyrrolo[2,3-b]pyridin-5-yl)oxy)-4-(4-((4,4-dimethyl-2-(4-(2,3,6-trifluorophenyl)thiophen-2-yl)cyclohex-1-en-1-yl)methyl)piperazin-1-yl)-N-((4-((((1r,4r)-4-hydroxy-4-methylcyclohexyl)methyl)amino)-3-nitrophenyl)sulfonyl)benzamide], the IC50 was 0.0332 µM.
Molecule CC1(C)CCC(CN2CCN(c3ccc(C(=O)NS(=O)(=O)c4ccc(NC[C@H]5CC[C@](C)(O)CC5)c([N+](=O)[O-])c4)c(Oc4cnc5[nH]ccc5c4)c3)CC2)=C(c2cc(-c3cc(F)cc(C#N)c3)cs2)C1 [Example 55, 2-((1H-pyrrolo[2,3-b]pyridin-5-yl)oxy)-4-(4-((2-(4-(3-cyano-5-fluorophenyl)thiophen-2-yl)-4,4-dimethylcyclohex-1-en-1-yl)methyl)piperazin-1-yl)-N-((4-((((1r,4r)-4-hydroxy-4-methylcyclohexyl)methyl)amino)-3-nitrophenyl)sulfonyl)benzamide] has an IC50 of 0.0475 µM.
CC1(C)CCC(CN2CCN(c3ccc(C(=O)NS(=O)(=O)c4ccc(NC[C@H]5CC[C@](C)(O)CC5)c([N+](=O)[O-])c4)c(Oc4cnc5[nH]ccc5c4)c3)CC2)=C(c2cc(-c3ccc(C(C)(C)C#N)cc3)cs2)C1 [Example 56, 2-((1H-pyrrolo[2,3-b]pyridin-5-yl)oxy)-4-(4-((2-(4-(4-(2-cyanopropan-2-yl)phenyl)thiophen-2-yl)-4,4-dimethylcyclohex-1-en-1-yl)methyl)piperazin-1-yl)-N-((4-((((1r,4r)-4-hydroxy-4-methylcyclohexyl)methyl)amino)-3-nitrophenyl)sulfonyl)benzamide] was tested, and the IC50 was 0.0276 µM.
In the case of CN(C)c1ccccc1-c1csc(C2=C(CN3CCN(c4ccc(C(=O)NS(=O)(=O)c5ccc(NC[C@H]6COCCO6)c([N+](=O)[O-])c5)c(Oc5cnc6[nH]ccc6c5)c4)CC3)CCC(C)(C)C2)c1 [Example 58, (S)—N-((4-(((1,4-dioxan-2-yl)methyl)amino)-3-nitrophenyl)sulfonyl)-2-((1H-pyrrolo[2,3-b]pyridin-5-yl)oxy)-4-(4-((2-(4-(2-(dimethylamino)phenyl)thiophen-2-yl)-4,4-dimethylcyclohex-1-en-1-yl)methyl)piperazin-1-yl)benzamide], the IC50 is reported as 0.0341 µM.
In the case of CC1(C)CCC(CN2CCN(c3ccc(C(=O)NS(=O)(=O)c4ccc(NC[C@H]5CC[C@](C)(O)CC5)c([N+](=O)[O-])c4)c(Oc4cnc5[nH]ccc5c4)c3)CC2)=C(c2cc(-c3ccc(C(C)(C)O)cc3)cs2)C1 [Example 59, 2-((1H-pyrrolo[2,3-b]pyridin-5-yl)oxy)-N-((4-((((1r,4r)-4-hydroxy-4-methylcyclohexyl)methyl)amino)-3-nitrophenyl)sulfonyl)-4-(4-((2-(4-(4-(2-hydroxypropan-2-yl)phenyl)thiophen-2-yl)-4,4-dimethylcyclohex-1-en-1-yl)methyl)piperazin-1-yl)benzamide], the IC50 is reported as 0.0385 µM.
For CC1(C)CCC(CN2CCN(c3ccc(C(=O)NS(=O)(=O)c4ccc(NC[C@H]5CC[C@](C)(O)CC5)c([N+](=O)[O-])c4)c(Oc4cnc5[nH]ccc5c4)c3)CC2)=C(c2cc(-c3ccc(C(O)(C(F)(F)F)C(F)(F)F)cc3)cs2)C1 [Example 60, 2-((1H-pyrrolo[2,3-b]pyridin-5-yl)oxy)-4-(4-((2-(4-(4-(1,1,1,3,3,3-hexafluoro-2-hydroxypropan-2-yl)phenyl)thiophen-2-yl)-4,4-dimethylcyclohex-1-en-1-yl)methyl)piperazin-1-yl)-N-((4-((((1r,4r)-4-hydroxy-4-methylcyclohexyl)methyl)amino)-3-nitrophenyl)sulfonyl)benzamide], the IC50 was 0.0341 µM.
For CC1(C)CCC(CN2CCN(c3ccc(C(=O)NS(=O)(=O)c4ccc(NC[C@H]5CC[C@](C)(O)CC5)c([N+](=O)[O-])c4)c(Oc4cnc5[nH]ccc5c4)c3)CC2)=C(c2cc(-c3ccc(C(C)(C)O)cc3F)cs2)C1 [Example 62, 2-((1H-pyrrolo[2,3-b]pyridin-5-yl)oxy)-4-(4-((2-(4-(2-fluoro-4-(2-hydroxypropan-2-yl)phenyl)thiophen-2-yl)-4,4-dimethylcyclohex-1-en-1-yl)methyl)piperazin-1-yl)-N-((4-((((1r,4r)-4-hydroxy-4-methylcyclohexyl)methyl)amino)-3-nitrophenyl)sulfonyl)benzamide], the IC50 was 0.0237 µM.
With CC1(C)CCC(CN2CCN(c3ccc(C(=O)NS(=O)(=O)c4ccc(NC[C@H]5CC[C@](C)(O)CC5)c([N+](=O)[O-])c4)c(Oc4cnc5[nH]ccc5c4)c3)CC2)=C(c2cc(-c3c(F)cc(C(C)(C)O)cc3F)cs2)C1 [Example 63, 2-((1H-pyrrolo[2,3-b]pyridin-5-yl)oxy)-4-(4-((2-(4-(2,6-difluoro-4-(2-hydroxypropan-2-yl)phenyl)thiophen-2-yl)-4,4-dimethylcyclohex-1-en-1-yl)methyl)piperazin-1-yl)-N-((4-((((1r,4r)-4-hydroxy-4-methylcyclohexyl)methyl)amino)-3-nitrophenyl)sulfonyl)benzamide] the IC50 was 0.0323 µM.
CC1(C)CCC(CN2CCN(c3ccc(C(=O)NS(=O)(=O)c4ccc(NC[C@H]5COCCO5)c([N+](=O)[O-])c4)c(Oc4cnc5[nH]ccc5c4)c3)CC2)=C(c2cc(-c3c(F)cc(C(C)(C)O)cc3F)cs2)C1 [Example 64, (S)—N-((4-(((1,4-dioxan-2-yl)methyl)amino)-3-nitrophenyl)sulfonyl)-2-((1H-pyrrolo[2,3-b]pyridin-5-yl)oxy)-4-(4-((2-(4-(2,6-difluoro-4-(2-hydroxypropan-2-yl)phenyl)thiophen-2-yl)-4,4-dimethylcyclohex-1-en-1-yl)methyl)piperazin-1-yl)benzamide] showed an IC50 of 0.037 µM.
CCC(O)(CC)c1cc(F)c(-c2csc(C3=C(CN4CCN(c5ccc(C(=O)NS(=O)(=O)c6ccc(NC[C@H]7CC[C@](C)(O)CC7)c([N+](=O)[O-])c6)c(Oc6cnc7[nH]ccc7c6)c5)CC4)CCC(C)(C)C3)c2)c(F)c1 [Example 67, 2-((1H-pyrrolo[2,3-b]pyridin-5-yl)oxy)-4-(4-((2-(4-(2,6-difluoro-4-(3-hydroxypentan-3-yl)phenyl)thiophen-2-yl)-4,4-dimethylcyclohex-1-en-1-yl)methyl)piperazin-1-yl)-N-((4-((((1r,4r)-4-hydroxy-4-methylcyclohexyl)methyl)amino)-3-nitrophenyl)sulfonyl)benzamide] showed an IC50 of 0.0337 µM.
